Data published in patent US12516056B2, “Compounds for inhibition of janus kinase 1” (MANKIND PHARMA LTD., priority 2019, dated 2026).

Tests used:
Recombinant JAK3 = molecular target: T1, Recombinant JAK3 (Homo sapiens, UniProt P52333); assay: JAK biochemical assay (LANCE Ultra TR-FRET), JAK3; details: recombinant JAK3, TR-FRET; read-out: Biochemical Assay (μM) JAK3
T1 construct: purchased Carna Biosciences
T1 sequence (P52333 1-1124): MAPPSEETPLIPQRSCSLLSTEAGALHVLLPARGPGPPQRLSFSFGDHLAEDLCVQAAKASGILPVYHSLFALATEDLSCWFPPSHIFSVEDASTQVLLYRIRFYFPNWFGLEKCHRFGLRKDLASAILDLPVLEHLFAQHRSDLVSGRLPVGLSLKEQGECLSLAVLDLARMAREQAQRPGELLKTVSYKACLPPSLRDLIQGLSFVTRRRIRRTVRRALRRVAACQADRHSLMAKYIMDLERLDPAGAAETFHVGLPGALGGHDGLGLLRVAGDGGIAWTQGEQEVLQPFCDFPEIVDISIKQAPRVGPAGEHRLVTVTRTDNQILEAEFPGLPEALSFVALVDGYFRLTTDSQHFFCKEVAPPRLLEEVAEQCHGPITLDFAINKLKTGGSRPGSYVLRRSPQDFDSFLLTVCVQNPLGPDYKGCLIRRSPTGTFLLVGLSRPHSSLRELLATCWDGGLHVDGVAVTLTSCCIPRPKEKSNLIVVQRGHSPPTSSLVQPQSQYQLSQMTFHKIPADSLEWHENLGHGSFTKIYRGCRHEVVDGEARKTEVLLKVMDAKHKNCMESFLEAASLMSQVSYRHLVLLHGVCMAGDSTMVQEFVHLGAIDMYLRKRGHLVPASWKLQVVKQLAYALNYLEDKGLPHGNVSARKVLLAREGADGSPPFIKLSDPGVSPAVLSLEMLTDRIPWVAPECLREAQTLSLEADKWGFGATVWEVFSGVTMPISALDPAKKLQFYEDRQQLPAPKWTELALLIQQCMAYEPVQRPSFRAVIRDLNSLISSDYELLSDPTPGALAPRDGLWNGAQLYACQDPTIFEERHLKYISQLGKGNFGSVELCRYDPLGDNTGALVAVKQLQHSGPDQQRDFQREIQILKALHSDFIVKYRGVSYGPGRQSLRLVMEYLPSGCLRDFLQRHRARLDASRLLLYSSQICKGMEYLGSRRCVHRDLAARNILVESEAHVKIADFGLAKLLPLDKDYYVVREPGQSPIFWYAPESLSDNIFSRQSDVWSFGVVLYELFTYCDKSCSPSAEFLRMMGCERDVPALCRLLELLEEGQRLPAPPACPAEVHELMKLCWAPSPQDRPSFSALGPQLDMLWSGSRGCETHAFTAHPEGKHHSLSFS
How it was run: (§1)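 TR-FRET read-out of ULight substrate phosphorylation by recombinant kinase gives % inhibition relative to vehicle. The assay buffer is HEPES pH 7.5 with EGTA, MgCl2, DTT and Tween-20.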

Recombinant JAK1 = molecular target: T2, Recombinant JAK1 (Homo sapiens, UniProt P23458); assay: JAK biochemical assay (LANCE Ultra TR-FRET), JAK1; details: recombinant JAK1, TR-FRET; read-out: Biochemical Assay (μM) JAK1
T2 construct: purchased Carna Biosciences
How it was run: as §1

Recombinant JAK2 = molecular target: T3, Recombinant JAK2 (Homo sapiens, UniProt O60674); assay: JAK biochemical assay (LANCE Ultra TR-FRET), JAK2; details: recombinant JAK2, TR-FRET; read-out: Biochemical Assay (μM) JAK2
T3 construct: purchased Carna Biosciences
How it was run: as §1

[1] = test system: STAT3 phosphorylation by IL-6 in TF-1 cells; assay: JAK cellular assay: STAT3 phosphorylation by IL-6 in TF-1 cells (HTRF); assay type: cell-based; details: Homo sapiens, TF-1, TF-1 cells, IL-6 30 ng/ml, pSTAT3 HTRF; read-out: Cell Based Assay (μM) TF-1/IL-6/pSTAT3
How it was run: (§2)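 TF-1 cells starved overnight in low-serum OptiMEM, then 120,000/well in RPMI, preincubated with compound 30 min at 37 °C (0.2% DMSO final). Stimulation 20 min with IL-6 30 ng/ml (pSTAT3) or GMCSF 5 ng/ml (pSTAT5); lysate phospho-STAT by HTRF, unstimulated background subtracted.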

[2] = test system: STAT5 phosphorylation by GMCSF in TF-1 cells; assay: JAK cellular assay: STAT5 phosphorylation by GMCSF in TF-1 cells (HTRF); assay type: cell-based; details: Homo sapiens; TF-1 cells, GMCSF 5 ng/ml, pSTAT5 HTRF; read-out: Cell Based Assay (μM) TF-1/GMCSF/pSTAT5
How it was run: as §2

Recombinant TYK2 = molecular target: T4, Recombinant TYK2 (Homo sapiens, UniProt P29597); assay: JAK biochemical assay (LANCE Ultra TR-FRET), TYK2; details: recombinant TYK2, TR-FRET; read-out: Biochemical Assay (μM) TYK2
T4 construct: purchased Carna Biosciences
How it was run: as §1

T3 sequence (O60674 whole entry): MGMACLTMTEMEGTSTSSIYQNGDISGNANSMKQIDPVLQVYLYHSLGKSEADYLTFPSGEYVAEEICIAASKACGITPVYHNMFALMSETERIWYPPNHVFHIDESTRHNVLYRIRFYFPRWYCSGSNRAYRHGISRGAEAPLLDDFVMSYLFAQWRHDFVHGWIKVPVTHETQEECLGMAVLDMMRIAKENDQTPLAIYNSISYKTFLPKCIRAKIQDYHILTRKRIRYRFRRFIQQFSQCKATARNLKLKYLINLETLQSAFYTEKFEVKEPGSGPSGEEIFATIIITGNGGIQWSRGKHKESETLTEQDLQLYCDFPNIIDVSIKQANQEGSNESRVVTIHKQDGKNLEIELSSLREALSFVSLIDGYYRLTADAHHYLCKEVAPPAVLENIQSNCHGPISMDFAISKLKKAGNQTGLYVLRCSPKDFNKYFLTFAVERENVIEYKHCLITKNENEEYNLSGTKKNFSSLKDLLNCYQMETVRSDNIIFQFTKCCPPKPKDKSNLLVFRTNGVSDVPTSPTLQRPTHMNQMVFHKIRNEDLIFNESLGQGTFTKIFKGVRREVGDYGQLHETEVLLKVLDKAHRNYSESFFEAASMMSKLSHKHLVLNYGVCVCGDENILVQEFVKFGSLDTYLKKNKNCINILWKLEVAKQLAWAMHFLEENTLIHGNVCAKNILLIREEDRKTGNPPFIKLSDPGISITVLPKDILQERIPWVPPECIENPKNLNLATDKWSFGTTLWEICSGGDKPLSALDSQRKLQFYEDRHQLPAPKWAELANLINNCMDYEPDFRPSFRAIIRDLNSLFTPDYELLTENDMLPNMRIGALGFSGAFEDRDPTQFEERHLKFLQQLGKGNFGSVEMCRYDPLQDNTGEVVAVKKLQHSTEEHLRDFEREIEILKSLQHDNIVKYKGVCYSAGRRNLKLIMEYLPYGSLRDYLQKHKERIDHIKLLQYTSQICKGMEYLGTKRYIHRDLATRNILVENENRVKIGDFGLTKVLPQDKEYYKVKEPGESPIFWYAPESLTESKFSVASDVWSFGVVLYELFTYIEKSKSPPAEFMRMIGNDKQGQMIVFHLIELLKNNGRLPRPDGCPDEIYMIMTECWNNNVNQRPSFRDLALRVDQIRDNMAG
T2 sequence (P23458 whole entry): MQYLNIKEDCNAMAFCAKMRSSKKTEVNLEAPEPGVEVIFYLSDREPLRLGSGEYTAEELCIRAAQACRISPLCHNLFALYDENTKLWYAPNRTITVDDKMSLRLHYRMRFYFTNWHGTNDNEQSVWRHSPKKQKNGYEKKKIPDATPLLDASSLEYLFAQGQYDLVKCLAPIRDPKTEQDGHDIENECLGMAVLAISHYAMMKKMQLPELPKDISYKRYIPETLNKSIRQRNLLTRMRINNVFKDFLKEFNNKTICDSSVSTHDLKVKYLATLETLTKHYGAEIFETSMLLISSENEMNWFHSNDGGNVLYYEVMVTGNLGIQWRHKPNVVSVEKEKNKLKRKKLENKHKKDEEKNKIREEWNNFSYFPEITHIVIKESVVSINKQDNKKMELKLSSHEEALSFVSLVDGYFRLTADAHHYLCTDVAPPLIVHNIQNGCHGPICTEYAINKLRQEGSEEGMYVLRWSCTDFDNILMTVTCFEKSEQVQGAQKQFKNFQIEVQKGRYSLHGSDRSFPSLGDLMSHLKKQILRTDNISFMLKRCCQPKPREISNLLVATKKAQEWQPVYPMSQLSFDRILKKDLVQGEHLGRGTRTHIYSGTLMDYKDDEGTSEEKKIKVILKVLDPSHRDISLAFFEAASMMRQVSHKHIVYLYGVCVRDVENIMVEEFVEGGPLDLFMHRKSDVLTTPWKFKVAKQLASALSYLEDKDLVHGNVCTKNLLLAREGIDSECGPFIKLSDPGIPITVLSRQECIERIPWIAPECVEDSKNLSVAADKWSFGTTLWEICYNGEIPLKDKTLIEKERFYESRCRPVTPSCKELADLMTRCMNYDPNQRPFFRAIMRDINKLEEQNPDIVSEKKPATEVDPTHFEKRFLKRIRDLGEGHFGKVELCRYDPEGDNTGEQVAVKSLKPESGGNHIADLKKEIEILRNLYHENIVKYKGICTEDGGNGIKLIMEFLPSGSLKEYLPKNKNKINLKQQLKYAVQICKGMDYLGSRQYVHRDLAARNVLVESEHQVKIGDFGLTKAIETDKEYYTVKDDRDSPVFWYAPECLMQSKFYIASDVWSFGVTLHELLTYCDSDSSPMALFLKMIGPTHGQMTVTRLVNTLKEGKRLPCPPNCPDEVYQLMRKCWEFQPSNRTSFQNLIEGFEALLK
T4 sequence (P29597 whole entry): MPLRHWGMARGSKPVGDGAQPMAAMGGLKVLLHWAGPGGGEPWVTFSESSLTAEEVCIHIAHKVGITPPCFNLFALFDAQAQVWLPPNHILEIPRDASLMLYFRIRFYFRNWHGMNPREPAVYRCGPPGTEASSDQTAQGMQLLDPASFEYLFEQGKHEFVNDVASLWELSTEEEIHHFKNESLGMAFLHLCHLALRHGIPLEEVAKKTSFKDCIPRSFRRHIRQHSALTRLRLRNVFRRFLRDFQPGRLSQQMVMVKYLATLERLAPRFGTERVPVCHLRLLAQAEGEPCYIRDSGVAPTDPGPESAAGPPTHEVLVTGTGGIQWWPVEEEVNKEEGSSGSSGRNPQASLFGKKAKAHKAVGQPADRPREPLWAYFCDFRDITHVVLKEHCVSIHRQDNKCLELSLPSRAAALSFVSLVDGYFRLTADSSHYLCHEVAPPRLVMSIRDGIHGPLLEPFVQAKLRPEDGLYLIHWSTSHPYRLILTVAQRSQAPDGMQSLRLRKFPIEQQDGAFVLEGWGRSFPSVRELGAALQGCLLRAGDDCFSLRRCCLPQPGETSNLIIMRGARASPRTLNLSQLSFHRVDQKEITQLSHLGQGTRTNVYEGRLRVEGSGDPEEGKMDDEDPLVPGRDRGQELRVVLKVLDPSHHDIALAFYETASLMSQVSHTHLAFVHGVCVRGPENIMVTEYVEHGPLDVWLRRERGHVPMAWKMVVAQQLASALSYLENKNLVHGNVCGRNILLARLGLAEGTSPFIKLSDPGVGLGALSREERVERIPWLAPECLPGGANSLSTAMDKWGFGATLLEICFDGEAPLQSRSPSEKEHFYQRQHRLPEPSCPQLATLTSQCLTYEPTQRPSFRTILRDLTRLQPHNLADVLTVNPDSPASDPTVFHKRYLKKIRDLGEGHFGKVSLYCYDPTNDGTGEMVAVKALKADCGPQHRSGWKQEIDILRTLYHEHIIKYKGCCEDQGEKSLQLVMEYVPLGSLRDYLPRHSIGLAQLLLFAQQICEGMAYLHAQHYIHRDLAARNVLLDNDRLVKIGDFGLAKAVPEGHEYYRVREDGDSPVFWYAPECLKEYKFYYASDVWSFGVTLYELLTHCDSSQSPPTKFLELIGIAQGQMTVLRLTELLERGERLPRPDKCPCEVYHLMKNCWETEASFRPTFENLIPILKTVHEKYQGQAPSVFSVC

Row | IC50 (Recombinant JAK3) [µM] | IC50 (Recombinant JAK1) [µM] | IC50 (Recombinant JAK2) [µM] | IC50 [1] [µM] | IC50 [2] [µM] | IC50 (Recombinant TYK2) [µM] | Structure (SMILES)
1 | < 0.1 | < 0.1 | < 0.1 | > 0.75 | > 1 | > 0.5 | CN1CCN(CCC(c2ccc(-n3cc(-c4ccnc5[nH]cnc45)cn3)nc2)C(F)(F)F)CC1 (stereo not drawn) [Example 1219, 7-(1-(5-(1,1,1-trifluoro-4-(4-methylpiperazin-1-yl)butan-2-yl)pyridin-2-yl)-1H-pyrazol-4-yl)-3H-imidazo[4,5-b]pyridine]
2 | < 0.1 | < 0.1 | < 0.1 | > 1 | > 1 | > 0.5 | O=C(C1CC1)N1CCC(C(O)(c2ccc(-n3cc(-c4ccnc5[nH]cnc45)cn3)nc2)C(F)(F)F)CC1 (stereo not drawn) [Example 1220, (4-(1-(6-(4-(3H-imidazo[4,5-b]pyridin-7-yl)-1H-pyrazol-1-yl)pyridin-3-yl)-2,2,2-trifluoro-1-hydroxyethyl)piperidin-1-yl)(cyclopropyl)methanone]
3 | < 0.1 | < 0.1 | < 0.1 | > 0.75 | > 1 | > 0.1 | CCN1CCC(C(O)(c2ccc(-n3cc(-c4ccnc5[nH]cnc45)cn3)nc2)C(F)(F)F)CC1 (stereo not drawn) [Example 1221, 1-(6-(4-(3H-imidazo[4,5-b]pyridin-7-yl)-1H-pyrazol-1-yl)pyridin-3-yl)-1-(1-ethylpiperidin-4-yl)-2,2,2-trifluoroethanol]
4 | 0.023 | 0.006 | 0.056 | 0.05 | 0.26 | 0.06 | CCN1CC(C(O)(c2ccc(-n3cc(-c4ccnc5[nH]cnc45)cn3)nc2)C(F)(F)F)C1 (stereo not drawn) [Example 1239, 1-(6-(4-(3H-imidazo[4,5-b]pyridin-7-yl)-1H-pyrazol-1-yl)pyridin-3-yl)-1-(1-ethylazetidin-3-yl)-2,2,2-trifluoroethanol]
5 | > 0.03 | > 0.01 | > 0.03 | > 0.5 | > 1 | > 1 | CC(C)N1CCC(C(O)(c2ccc(-n3cc(-c4ccnc5[nH]cnc45)cn3)nc2)C(F)(F)F)CC1 (stereo not drawn) [Example 1240, 1-(6-(4-(3H-imidazo[4,5-b]pyridin-7-yl)-1H-pyrazol-1-yl)pyridin-3-yl)-2,2,2-trifluoro-1-(1-isopropylpiperidin-4-yl)ethanol]

The next lines start with the compound.

Row | Structure (SMILES) | IC50 (Recombinant JAK3) [µM] | IC50 (Recombinant JAK1) [µM] | IC50 (Recombinant JAK2) [µM] | IC50 [1] [µM] | IC50 [2] [µM] | IC50 (Recombinant TYK2) [µM]
6 | OC(Cc1ccc(-n2cc(-c3ccnc4[nH]cnc34)cn2)nc1)C(F)(F)F (stereo not drawn) [Example 1183, 3-(6-(4-(3H-imidazo[4,5-b]pyridin-7-yl)-1H-pyrazol-1-yl)pyridin-3-yl)-1,1,1-trifluoropropan-2-ol] | > 0.1 | > 0.1 | > 0.5 | 1 | > 1 | > 1
7 | CS(=O)(=O)NC(c1ccc(-n2cc(-c3ccnc4[nH]cnc34)cn2)nc1)C(F)(F)F (stereo not drawn) [Example 1187] | < 0.1 | < 0.1 | > 0.1 | > 1 | > 1 | > 1
8 | OCC(Cc1ccc(-n2cc(-c3ccnc4[nH]cnc34)cn2)nc1)C(F)(F)F (stereo not drawn) [Example 1191, 3-(6-(4-(3H-imidazo[4,5-b]pyridin-7-yl)-1H-pyrazol-1-yl)pyridin-3-yl)-2-(trifluoromethyl)propan-1-ol] | < 0.1 | < 0.1 | < 0.1 | > 1 | > 1 | > 1
9 | CN(CCC(c1ccc(-n2cc(-c3ccnc4[nH]cnc34)cn2)nc1)C(F)(F)F)C1CC1 (stereo not drawn) [Example 1195, N-(3-(6-(4-(3H-imidazo[4,5-b]pyridin-7-yl)-1H-pyrazol-1-yl)pyridin-3-yl)-4,4,4-trifluorobutyl)-N-methylcyclopropanamine] | < 0.1 | < 0.1 | < 0.1 | > 0.5 | > 1 | > 1
10 | FC(F)(F)C(OCCNC1CC1)c1ccc(-n2cc(-c3ccnc4[nH]cnc34)cn2)nc1 (stereo not drawn) [Example 1197, N-(2-(1-(6-(4-(3H-imidazo[4,5-b]pyridin-7-yl)-1H-pyrazol-1-yl)pyridin-3-yl)-2,2,2-trifluoroethoxy)ethyl)cyclopropanamine] | < 0.1 | < 0.1 | < 0.1 | > 0.3 | > 1 | > 0.5
11 | FC(F)(F)C(CCN1CCOCC1)c1ccc(-n2cc(-c3ccnc4[nH]cnc34)cn2)nc1 (stereo not drawn) [Example 1201, 7-(1-(5-(1,1,1-trifluoro-4-morpholinobutan-2-yl)pyridin-2-yl)-1H-pyrazol-4-yl)-3H-imidazo[4,5-b]pyridine] | < 0.1 | < 0.1 | > 0.5 | > 0.5 | > 1 | > 1
12 | N#CC1CN(CCC(c2ccc(-n3cc(-c4ccnc5[nH]cnc45)cn3)nc2)C(F)(F)F)C1 (stereo not drawn) [Example 1202, 1-(3-(6-(4-(3H-imidazo[4,5-b]pyridin-7-yl)-1H-pyrazol-1-yl)pyridin-3-yl)-4,4,4-trifluorobutyl)azetidine-3-carbonitrile] | < 0.1 | < 0.1 | > 0.1 | > 0.5 | > 1 | > 0.5
13 | CS(=O)(=O)NCC(c1ccc(-n2cc(-c3ccnc4[nH]cnc34)cn2)nc1)C(F)(F)F (stereo not drawn) [Example 1209] | < 0.1 | < 0.1 | < 0.1 | > 0.75 | > 1 | > 1
14 | CC(C)NC(=O)CCC(c1ccc(-n2cc(-c3ccnc4[nH]cnc34)cn2)nc1)C(F)(F)F (stereo not drawn) [Example 1210, 4-(6-(4-(3H-imidazo[4,5-b]pyridin-7-yl)-1H-pyrazol-1-yl)pyridin-3-yl)-5,5,5-trifluoro-N-isopropylpentanamide] | < 0.1 | < 0.1 | < 0.1 | > 0.75 | > 1 | > 1
15 | FC(F)(F)C(CNC1CC1)c1ccc(-n2cc(-c3ccnc4[nH]cnc34)cn2)nc1 (stereo not drawn) [Example 1212, N-(2-(6-(4-(3H-imidazo[4,5-b]pyridin-7-yl)-1H-pyrazol-1-yl)pyridin-3-yl)-3,3,3-trifluoropropyl)cyclopropanamine] | < 0.1 | < 0.1 | < 0.1 | > 0.75 | > 1 | > 0.5
